Measurements reported in patent US8506947B2 (priority 1999, dated 2013).
Where two headings read alike, the source gives them in different places.

Columns and labels:
[1] = test system: Murine colon adenocarcinoma cells (MC38 cells); assay type: cell-based
hepatic metastases = conditions: cited from earlier work
[2] = test system: transduced sarcoma cell line; conditions: cited from earlier work
sarcoma cells = conditions: gpt gene retrovirally transduced; cited from earlier work
glioma cells = conditions: cited from earlier work
melanoma cells = conditions: after antibody-β-lactamase conjugate; cited from earlier work
intracerebral gliomas = conditions: adenovirus carrying HSV-TK intratumorally, IP GCV twice daily for 6 days; cited from earlier work
[3] = test system: subcutaneous tumors (glioma-breast cancer) retrovirally transduced with CYP2B1; conditions: single IP injection of cyclophosphamide; cited from earlier work

For `Nc1nc(=O)[nH]cc1F` [5-FC, 5-fluorocytosine], the “cells killed as a result of the 5-FC exposure” value [1] was roughly 100% and the “effect of the 5-FC exposure on cells” value [1] was “not affected”.

In the case of `Cc1ncnc2c1ncn2[C@H]1C[C@H](O)[C@@H](CO)O1` [6-MPDR, 6-methylpurine deoxyriboside], the cure rate (hepatic metastases; every other daily injections of 6-MPDR) is given as 50% and the cure rate (hepatic metastases; weekly injections of 6-MPDR) is given as 30%.

For `O=c1[nH]c(=S)c2[nH]cnc2[nH]1` [6-TX, 6-thioxanthine], the “treatment mortality due to toxicity of the converted prodrug” value ([2]; 5 days of treatment with 6-TX) is given as 10%, the “complete regression, share of the animals” value ([2]; after 5 days of treatment with 6-TX) is given as 95% and the increased sensitivity (sarcoma cells) is given as 86 fold. The LD50 (glioma cells; glioma cells transduced with gpt) was 2.5 µmol/L and the “sensitivity of untransfected cells” value (glioma cells; untransfected cells at 50 umol/L) was “minimally sensitive”.

For `COc1cccc2c1C(=O)c1c(O)c3c(c(O)c1C2=O)C[C@@](O)(C(=O)CO)C[C@@H]3O[C@H]1C[C@H](NC(=O)OCC2=C(C(=O)O)N3C(=O)[C@@H](NC(=O)Cc4ccccc4)[C@H]3SC2)[C@H](O)[C@H](C)O1` [C-Dox, cephalosporin-doxorubicin], the “increase in the sensitivity of cells to the prodrugs” value (melanoma cells) is given as 4 fold.

In the case of `Nc1nc(O)c2ncn(COC(CO)CO)c2n1` [GCV, Gancyclovir], the complete regressions (intracerebral gliomas) is given as 2 and the “decrease in tumor size compared to controls” value (intracerebral gliomas) is given as 23 fold.

For `O=P1(N(CCCl)CCCl)NCCCO1` (stereo not shown) [cyclophosphamide], the “complete inhibition of tumors, share of animals” value [3] is given as 95%.
